Results published in patent publication US20230278984A1 (Global Blood Therapeutics, Inc., priority 2020, published 2023).

Biological target: T1, Human pyruvate kinase R (PKR) (Homo sapiens, UniProt P30613)
T1 construct: Human pyruvate kinase R (PKR), residues 14-574; 6x-His (N, cleaved yes); 8x-Arg (N, cleaved yes); SUMO (N, cleaved yes); host or cells: E. coli
Test: Biochemical assay for activation of pyruvate kinase R (Kinase-Glo luminescence measurement of ATP generation)
Settings: for AC50: PKR biochemical assay, 0.1 nM PKR, 0.3 mM ADP, 2 mM FBP, 0.1 mM PEP; for Emax: maximal activation level relative to the activation level achieved by the literature compound AG-348 @ 10 μM
Method: Human pyruvate kinase R (PKR), residues 14-574, and human pyruvate kinase M2, residues 1-531, were cloned into expression plasmids and obtained from ATUM Bio (Newark, Calif.). Proteins were translated as fusions with 6×-His, 8×-Arg, and SUMO at the N-terminus. A third construct of human PKR was truncated, residues 50-574, and similarly cloned for use in crystallography experiments. All proteins were cloned, expressed in E. coli, and purified using similar protocols. Cells were grown at 30° C. in Luria-Bertani broth supplemented with 0.4% glucose to OD600=0.8 and induced with 0.4 mM IPTG at 16° C. for 18 hours. Cells were harvested by centrifugation, resuspended in 50 mM potassium phosphate pH 8.0, 500 mM NaCl, 25 mM imidazole pH 8.0, and 3 mM (3-mercaptoethanol. Cells were lysed using a LM20 microfluidizer from Microfluidics (Westwood, Mass.). The crude lysate was immediately supplemented with 0.2 mM phenylmethylsulfonyl fluoride (PMSF) and centrifuged at 20,000 g for 20 minutes. The soluble fraction was subsequently incubated with 2 mL Ni-NTA (GE Healthcare) per 1,000 ODs for 1 hour at 4° C. Following incubation with the Ni-NTA resin, lysate was removed by pelleting resin at 2,500 g for 3 minutes and washed 3 times with 9 bed volumes of 50 mM potassium phosphate pH 8.0, 500 mM NaCl, 25 mM imidazole, and 3 mM 3-mercaptoethanol. Following the batch wash Ni-NTA resin was loaded onto a gravity column and His-tagged protein was eluted with 6 bed volumes of 10 mM Tris/HCl pH 8.0, 200 mM NaCl, 500 mM imidazole, and 3 mM (3-mercaptoethanol. Eluted protein was dialyzed overnight against 10 mM Tris/HCl pH 8.0, 200 mM NaCl, and 1 mM DTT and the 6×-His-8×-Arg-SUMO-tag was cleaved using a 20:1 molar ratio of protein:3C protease. The protein was purified by anion exchange chromatography on a HiTrapQ or MonoQ 10/100 GL column (GE Healthcare) via a linear NaCl gradient and twice by size exclusion chromatography using a Superdex S200 26/60 column (GE Healthcare) run in 10 mM Tris/HCl pH 8.0, 200 mM NaCl, 10 mM MgCl2, 1 mM DTT. Proteins were concentrated to −12 mg/mL for crystallization and flash frozen for storage.
Biochemical Assay for Activation of Pyruvate Kinase R
Activation of pyruvate kinase R (PKR) and pyruvate kinase M2 (PKM2) were measured using a luminescence based measurement of ATP generation and the Kinase-Glo luminescent kinase reagent kit.

T1 sequence (P30613 14-574): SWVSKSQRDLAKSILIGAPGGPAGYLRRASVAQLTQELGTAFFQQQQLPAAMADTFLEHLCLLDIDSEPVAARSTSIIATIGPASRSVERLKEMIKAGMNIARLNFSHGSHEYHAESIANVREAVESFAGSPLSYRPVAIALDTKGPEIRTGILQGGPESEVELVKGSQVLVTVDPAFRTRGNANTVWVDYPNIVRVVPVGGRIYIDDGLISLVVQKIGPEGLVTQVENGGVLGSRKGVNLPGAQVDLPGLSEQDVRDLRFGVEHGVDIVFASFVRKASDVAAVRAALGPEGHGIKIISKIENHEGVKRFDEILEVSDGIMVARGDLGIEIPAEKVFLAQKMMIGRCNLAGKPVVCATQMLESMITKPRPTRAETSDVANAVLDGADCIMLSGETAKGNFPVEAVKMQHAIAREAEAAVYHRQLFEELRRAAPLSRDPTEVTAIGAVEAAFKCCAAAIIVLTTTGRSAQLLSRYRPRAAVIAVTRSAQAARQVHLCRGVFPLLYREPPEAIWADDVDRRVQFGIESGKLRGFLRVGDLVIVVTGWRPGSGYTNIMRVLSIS

Row | SMILES | AC50 | Emax
1 | Cc1nc(CNC(=O)NCc2ncnn2-c2cc(F)c3nccnc3c2)n(-c2ccc(Cl)c(F)c2)n1 [Compound 101, 1-{[1-(4-chloro-3-fluorophenyl)-3-methyl-1H-1,2,4-triazol-5-yl]methyl}-3-{[1-(8-fluoroquinoxalin-6-yl)-1H-1,2,4-triazol-5-yl]methyl}urea] | 93 nM | 77%
2 | Cc1nc(CNC(=O)NCc2ncnn2-c2cc(C)c3cccnc3c2)n(-c2ccc(Cl)c(F)c2)n1 [Compound 113, 1-{[1-(4-chloro-3-fluorophenyl)-3-methyl-1H-1,2,4-triazol-5-yl]methyl}-3-{[1-(5-methylquinolin-7-yl)-1H-1,2,4-triazol-5-yl]methyl}urea] | 40 nM | 116%
3 | Cc1nc(CNC(=O)NCc2ncnn2CC2(C)CCOCC2)n(-c2ccc(Cl)c(F)c2)n1 [Compound 12, 3-{[1-(4-chloro-3-fluorophenyl)-3-methyl-1H-1,2,4-triazol-5-yl]methyl}-1-({1-[(4-methyloxan-4-yl)methyl]-1H-1,2,4-triazol-5-yl}methyl)urea] | 180 nM | 89%
4 | Cc1nc(CNC(=O)NCc2ncnn2-c2cnc3ccccc3c2)n(-c2ccc(Cl)c(F)c2)n1 [Compound 126, 1-{[1-(4-chloro-3-fluorophenyl)-3-methyl-1H-1,2,4-triazol-5-yl]methyl}-3-{[1-(quinolin-3-yl)-1H-1,2,4-triazol-5-yl]methyl}urea] | 67 nM | 84%
5 | O=C(NCc1nnnn1-c1ccc(F)c(Cl)c1)NCc1nnnn1-c1ccc(F)c(Cl)c1 [Compound 70, 1,3-bis({[1-(3-chloro-4-fluorophenyl)-1H-1,2,3,4-tetrazol-5-yl]methyl})urea] | 110 nM | 64%
6 | Cc1nc(CNC(=O)NCc2nnnn2-c2ccc(Cl)c(F)c2)n(-c2ccc3cccnc3c2)n1 [Compound 86, 1-{[1-(4-chloro-3-fluorophenyl)-1H-1,2,3,4-tetrazol-5-yl]methyl}-3-{[3-methyl-1-(quinolin-7-yl)-1H-1,2,4-triazol-5-yl]methyl}urea] | 66 nM | 90%
7 | Cc1ccc(-n2nnnc2CNC(=O)NCc2nnnn2-c2ccc(C)c(F)c2)cc1F [Compound 58, 1,3-bis({[1-(3-fluoro-4-methylphenyl)-1H-1,2,3,4-tetrazol-5-yl]methyl})urea] | 220 nM | 88%
8 | Cc1ccc2ccc(-n3ncnc3CNC(=O)NCc3nc(C)nn3-c3ccc(Cl)c(F)c3)cc2n1 [Compound 29, 3-{[1-(4-chloro-3-fluorophenyl)-3-methyl-1H-1,2,4-triazol-5-yl]methyl}-1-{[1-(2-methylquinolin-7-yl)-1H-1,2,4-triazol-5-yl]methyl}urea] | 110 nM | 78%
9 | Cc1nc(CNC(=O)N(C)Cc2nc(C)nn2-c2ccc(Cl)c(F)c2)n(-c2ccc(Cl)c(F)c2)n1 [Compound 78, 1,3-bis({[1-(4-chloro-3-fluorophenyl)-3-methyl-1H-1,2,4-triazol-5-yl]methyl})-1-methylurea] | 110 nM | 88%
10 | Cc1nc(CNC(=O)NCc2ncnn2CC2(O)CCCCC2)n(-c2ccc(Cl)c(F)c2)n1 [Compound 23, 3-{[1-(4-chloro-3-fluorophenyl)-3-methyl-1H-1,2,4-triazol-5-yl]methyl}-1-({1-[(1-hydroxycyclohexyl)methyl]-1H-1,2,4-triazol-5-yl}methyl)urea] | 230 nM | 72%
11 | O=C(NCc1ncnn1-c1ccc(F)c(Cl)c1)NCc1ncnn1-c1ccc(F)c(Cl)c1 [Compound 64, 1,3-bis({[1-(3-chloro-4-fluorophenyl)-1H-1,2,4-triazol-5-yl]methyl})urea] | 120 nM | 46%
12 | Cc1nc(CNC(=O)NCc2ncnn2-c2ccc3ncc(F)cc3c2)n(-c2ccc(Cl)c(F)c2)n1 [Compound 46, 3-{[1-(4-chloro-3-fluorophenyl)-3-methyl-1H-1,2,4-triazol-5-yl]methyl}-1-{[1-(3-fluoroquinolin-6-yl)-1H-1,2,4-triazol-5-yl]methyl}urea] | 38 nM | 74%
13 | Cc1nc(CNC(=O)NCc2ncnn2-c2ccc3nccnc3c2)n(-c2ccc(Cl)c(F)c2)n1 [Compound 40, 3-{[1-(4-chloro-3-fluorophenyl)-3-methyl-1H-1,2,4-triazol-5-yl]methyl}-1-{[1-(quinoxalin-6-yl)-1H-1,2,4-triazol-5-yl]methyl}urea] | 150 nM | 73%
14 | Cc1nc(CNC(=O)NCc2ncnn2-c2cncc(C3CC3)c2)n(-c2ccc(Cl)c(F)c2)n1 [Compound 133, 1-{[1-(4-chloro-3-fluorophenyl)-3-methyl-1H-1,2,4-triazol-5-yl]methyl}-3-{[1-(5-cyclopropylpyridin-3-yl)-1H-1,2,4-triazol-5-yl]methyl}urea] | 160 nM | 86%
15 | CCN(Cc1ncnn1-c1ccc(Cl)c(F)c1)C(=O)NCc1ncnn1CC1CCOCC1 [Compound 8, 3-{[1-(4-chloro-3-fluorophenyl)-1H-1,2,4-triazol-5-yl]methyl}-3-ethyl-1-({1-[(oxan-4-yl)methyl]-1H-1,2,4-triazol-5-yl}methyl)urea] | 320 nM | 59%
16 | O=C(NCc1nnnn1-c1cccc(Cl)c1)NCc1nnnn1-c1cccc(Cl)c1 [Compound 2, 1,3-bis({[1-(3-chlorophenyl)-1H-1,2,3,4-tetrazol-5-yl]methyl})urea] | 530 nM | 69%
17 | Cc1nc(CNC(=O)NCc2ncnn2-c2cc(C)c3nccnc3c2)n(-c2ccc(Cl)c(F)c2)n1 [Compound 103, 1-{[1-(4-chloro-3-fluorophenyl)-3-methyl-1H-1,2,4-triazol-5-yl]methyl}-3-{[1-(8-methylquinoxalin-6-yl)-1H-1,2,4-triazol-5-yl]methyl}urea] | 110 nM | 73%
18 | O=C(NCc1ncnn1-c1ccc(Cl)c(F)c1)NCc1nc(C2CC2)nn1-c1ccc2cccnc2c1 [Compound 91, 1-{[1-(4-chloro-3-fluorophenyl)-1H-1,2,4-triazol-5-yl]methyl}-3-{[3-cyclopropyl-1-(quinolin-7-yl)-1H-1,2,4-triazol-5-yl]methyl}urea] | 49 nM | 61%
19 | O=C(NCC1=NC2(CC2)C(=O)N1Cc1ccc(F)cc1)NCc1ncnn1-c1ccc(Cl)c(F)c1 [Compound 109, 1-{[1-(4-chloro-3-fluorophenyl)-1H-1,2,4-triazol-5-yl]methyl}-3-({6-[(4-fluorophenyl)methyl]-7-oxo-4,6-diazaspiro[2.4]hept-4-en-5-yl}methyl)urea] | 110 nM | 96%
20 | COc1cncc(-n2ncnc2CNC(=O)NCc2nc(C)nn2-c2ccc(Cl)c(F)c2)c1 [Compound 134, 1-{[1-(4-chloro-3-fluorophenyl)-3-methyl-1H-1,2,4-triazol-5-yl]methyl}-3-{[1-(5-methoxypyridin-3-yl)-1H-1,2,4-triazol-5-yl]methyl}urea] | 170 nM | 110%
21 | Cc1nc(CNC(=O)NCc2ncnn2-c2ccc3cc(F)cnc3c2)n(-c2ccc(Cl)c(F)c2)n1 [Compound 48, 1-{[1-(4-chloro-3-fluorophenyl)-3-methyl-1H-1,2,4-triazol-5-yl]methyl}-3-{[1-(3-fluoroquinolin-7-yl)-1H-1,2,4-triazol-5-yl]methyl}urea] | 83 nM | 74%
22 | CCc1nc(CNC(=O)NCc2ncnn2-c2ccc(Cl)c(F)c2)n(-c2ccc3cccnc3c2)n1 [Compound 92, 1-{[1-(4-chloro-3-fluorophenyl)-1H-1,2,4-triazol-5-yl]methyl}-3-{[3-ethyl-1-(quinolin-7-yl)-1H-1,2,4-triazol-5-yl]methyl}urea] | 52 nM | 72%
23 | Cc1nc(CNC(=O)NCc2ncnn2-c2cnc3ccc(F)cc3c2)n(-c2ccc(Cl)c(F)c2)n1 [Compound 139, 1-{[1-(4-chloro-3-fluorophenyl)-3-methyl-1H-1,2,4-triazol-5-yl]methyl}-3-{[1-(6-fluoroquinolin-3-yl)-1H-1,2,4-triazol-5-yl]methyl}urea] | 61 nM | 96%
24 | CCN(Cc1ncnn1CC1CCOCC1)C(=O)NCc1ncnn1-c1ccc(Cl)c(F)c1 [Compound 9, 3-{[1-(4-chloro-3-fluorophenyl)-1H-1,2,4-triazol-5-yl]methyl}-1-ethyl-1-({1-[(oxan-4-yl)methyl]-1H-1,2,4-triazol-5-yl}methyl)urea] | 120 nM | 64%
